“Also recorded” adds a separate entry of the source. Like-named read-outs stand apart in the source and are kept apart here.
Experiments:
[1] = test system: salmon sperm DNA; assay: Fluorescent Intercalator Displacement assay (ethidium bromide); format: binding; parameters: displacement of ethidium bromide: dose or concentration left out as unconfirmed; details: for displacement of ethidium bromide: […] μM; for DNA binding: three concentrations tested
Procedure: Finally, DNA binding by these three compounds was assessed. DNA binding is often a reflection of non-specificity, which can lead to adverse side effects. The well-established Fluorescent Intercalator Displacement assay by Tse et al.^43 that measures displacement of ethidium bromide, a known intercalator of DNA was used. In this assay, ethidium bromide (EB) bound to the salmon sperm DNA.

[2] = test system: MDA-MB-231 cells; assay: Invasion assay (Boyden chamber, Matrigel); format: cell-based, human; details: Homo sapiens
Procedure: Invasion and Migration Assays. These assays were performed using BD BioCoat Matrigel Invasion Chamber (Cat. 354480, BD Biosciences, Bedford, Mass.). The undersurface of the inserts was coated with 30 μg/mL of fibronectin (Sigma, F2006) in PBS at 4° C. overnight. The inserts were washed with PBS once. Then, 0.5 mL of serum-free medium was separately added to the upper and lower chambers to equilibrate the Matrigel invasion chambers at 37° C., 5% CO2 for 2 hours. After starvated with serumfree DMEM or 4 hours, subconfluent MDA-MB-231 cells were trypsinized and resuspended in 0.1% FBS DMEM. 5×10^4 cells in 500 μL of 0.1% FBS DMEM containing various compounds or 1.0% DMSO (as control) were added to the upper chambers. 500 μL of 10% FBS DMEM containing the same concentration of the same compound or DMSO were added to the lower chambers. We incubated the invasion chambers for 3 hours at 37° C., 5% CO2. Non-invaded cells were removed from the upper chamber with a cotton swab. The invaded cells were fixed with 100% methanol and then stained with Hematoxylin Stain Harris Modified Method (Fisher, SH30-500D). The filters were washed with water 3 times. Filters were air dried and the invaded cells were counted in ten randomly selected microscopic fields (×200 magnification). The experiment was performed in triplicate per group and shown by mean±SE.
Whether the two active compounds affected invasion, adhesion and migration in cell culture in a concentration-dependent study was tested (FIGS. 2A, 2B). For invasion, the Transwell (or Boyden) chamber assay was used.^28 The assay uses a chamber with two compartments that are separated by a microporous membrane known as Matrigel consisting of components of the ECM such as collagen, laminin and fibronectin.^28
Invasive tumor cells degrade the Matrigel and migrate through the membrane to the lower compartment. […] FIGS. 2A and 2B show the effect of representative presently disclosed compounds on MDA-MB-231 metastasis. Percent inhibition of invasion, migration, and adhesion of MDA-MB-231 by compounds that bind to uPAR.

[3] = target: T1, uPAR (Homo sapiens, UniProt Q03405); assay: Fluorescence polarization assay, displacement of AE147-FAM peptide from uPAR; format: binding
T1 construct: human uPAR (suPAR, amino acids 1-283) was expressed in stably transfected Drosophila S2 cells; made in house; host or cells: Drosophila S2 cells
Procedure: Fluorescence Polarization Assay. The fluorescence polarization assay used fluorescent AE147-FAM peptide. uPAR was titrated against the fluorescent AE147-FAM peptide and data were fit to a sigmoidal dose-dependent curve as the FP value increases to determine the Kd of binding using Sigmaplot (Systat Software Inc., CA). Inhibitor screens were carried out in triplicates using 500 nM uPAR, 100 nM AE147-FAM, and inhibitor concentrations ranging from 0.78 μM to 100 μM in 50 μL volumes in black BD Falcon 384-well microplate. […] Polarized fluorescence intensities were measured immediately following addition of inhibitors to the protein-peptide mix at room temperature on an EnVision® Multilabel Plate Readers (PerkinElmer) with excitation and emission wavelengths of 485 nm and 530 nm, respectively.
Cloning, Expression and Purification of uPAR. uPAR was successfully cloned, expressed and purified. From 1 L of culture, nearly 12 mg of protein was expressed, which will be sufficient to conduct the experiments disclosed herein. Briefly, a truncated, soluble form of human uPAR (suPAR, amino acids 1-283) was expressed in stably transfected Drosophila S2 cells using the Drosophila Expression System (Invitrogen). suPAR was obtained by a two-step purification process. The conditioned culture medium was filtered (0.45 μm) and loaded onto a DEAE Sephadex column equilibrated with 20 mM Tris (pH 7.4). The protein was eluted with a gradient of 0-1 M NaCl in 20 mM Tris (pH 7.4). suPAR containing fractions were then pooled, concentrated, and filtered prior to RP-HPLC using a semi-preparative (10×25 cm) C8 column. A 1 mL aliquot of the concentrated protein was loaded onto the column at initial gradient conditions of 95% eluent A and 5% eluent B, where eluent A was 0.1% TFA/100% H2O and eluent B was 70:30 acetonitrile/[…]. The protein elutes using a gradient of 5% eluent A to 95% eluent B over 46 minutes at a flow rate of 4 mL/min. Under these conditions, the protein eluted as a single sharp peak (tR=29 min). […] Surface plasmon resonance confirmed that the purified uPAR was capable of binding to uPA. The identity of the 60 kDa band was established by immunoblot (not shown).
The design of a fluorescent probe was guided by the three-dimensional structure of uPAR in complex with peptide AE147.^27 As this peptide binds at the same site that is occupied by the growth factor-like domain of uPA, it provides the basis for the development of a competition assay to assess binding to this site. Flurescein was introduced to the N-terminus of AE147.
All 210 compounds were screened at initial concentration of 50 μM for displacement of AE147-FAM peptide. Eleven compounds gave polarization readings that were five times that of the standard deviation of the control peptide (FIG. 1B). Secondary concentration-dependent study for these eleven compounds was performed.
The resulting inhibition curves were used to determine an inhibition constant, Ki, for each.

T1 sequence (Q03405 23-305): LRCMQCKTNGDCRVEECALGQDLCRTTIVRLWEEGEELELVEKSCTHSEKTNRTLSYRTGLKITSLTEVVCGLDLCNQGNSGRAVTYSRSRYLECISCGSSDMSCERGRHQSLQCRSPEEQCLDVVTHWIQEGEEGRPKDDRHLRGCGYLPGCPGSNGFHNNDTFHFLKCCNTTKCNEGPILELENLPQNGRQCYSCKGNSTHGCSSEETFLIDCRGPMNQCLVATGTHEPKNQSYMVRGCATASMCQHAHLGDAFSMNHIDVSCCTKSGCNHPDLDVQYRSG

Row | IC50 ([3]; Table 1, assay not stated) [µM] | Ki ([3]; Table 1, assay not stated, read-out: Ki) [µM] | Compound | displacement of ethidium bromide [1] | DNA binding [1] | IC50 [2] [µM] | Ki ([3]; from concentration-dependent inhibition curves, read-out: inhibition constant, Ki) [µM]
1 |  |  | Cc1cc(C)cc(NC(=O)c2cnn(-c3ccc(C(C)C)cc3)c2C2CCNCC2)c1 [IPR-69, N-(3,5-dimethylphenyl)-1-(4-isopropylphenyl)-5-(piperidin-4-yl)-1H-pyrazole-4-carboxamide] | less than 10% | not strongly affected; also recorded: no DNA binding | 30 | 30
2 | 24.4 | 7.4 | CN(C)c1ccc(CNCCC(Cc2ccccc2)c2ccc3c(c2)OCO3)cc1 (racemic) [IPR-9, 4-(((3-(benzo[d][1,3]dioxol-5-yl)-4-phenylbutyl)amino)methyl)-N,Ndimethylaniline] | 30% | not strongly affected | 30 | 
